Measured values taken from paper PMC9481563, “Structural insights into the pSer/pThr dependent regulation of the SHP2 tyrosine phosphatase in insulin and CD28 signaling” (Nature Communications, 2022).

Each compound was assayed against T1, SHP2 catalytic domain (219–528), C459S, wild-type (inactive) (Homo sapiens, UniProt Q06124, C459S) (assay: Fluorescence polarization titrations, inactive SHP2 catalytic domain). Settings: competitive FP titration vs CF-ppIRS1 100 nM, protein fixed, unlabelled peptide varied; n = 3 technical replicates.
T1 construct: SHP2 catalytic domains (219–528 with or without C459S) were sub-cloned into pBH4 vectors; His6 (N); made in house; host or cells: E. coli BL21 (DE3)
T1 sequence (Q06124 219-528 C459S): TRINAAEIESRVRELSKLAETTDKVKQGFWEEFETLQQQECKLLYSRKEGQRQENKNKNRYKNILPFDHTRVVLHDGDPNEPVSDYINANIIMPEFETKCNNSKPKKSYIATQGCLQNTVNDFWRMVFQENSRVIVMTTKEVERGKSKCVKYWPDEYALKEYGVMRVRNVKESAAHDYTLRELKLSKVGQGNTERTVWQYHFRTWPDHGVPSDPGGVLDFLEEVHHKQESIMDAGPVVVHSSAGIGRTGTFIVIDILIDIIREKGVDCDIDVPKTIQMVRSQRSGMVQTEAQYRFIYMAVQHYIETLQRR
Format: binding
Description: The two SH2 domains of PI3KR1 (UniProt P27986; nSH2: 321−433 cSH2: 614–724) were cloned from HEK293T cDNA pool, and subsequently ligated into a modified pET vector encoding maltose binding protein (MBP) tag on the N-terminal and a hexa-His tag on the C-terminal end of the construct. Similarly, the catalytic, tyrosine phosphatase domains of PTPRε (P23469 first domain: 107–399) and PTP1B (P18031; 1–229) were cloned from a HEK293T cDNA pool, and inserted into a pBH4 vector encoding an N-terminal His6 tag (for the final binding experiments, an MBP-tagged version of PTPRε was employed). […] Wild-type C-terminal FLAG-tagged human IRS1 was cloned between HindIII-NotI sites of pcDNA3.1(+) vector (#V79020 Invitrogen, Waltham MA USA). Ser/Ala mutant IRS1 was generated by replacing the region of S616/S636/S666/S736 positions with a cassette carrying S616A/S636A/S666A/S736A mutations. All constructs were validated by complete Sanger sequencing before protein expression and purification. The oligonucleotide sequences used are shown on Supplementary table 4.
Fluorescence polarization was always measured in triplicates, on black Corning low volume round bottom 384-well plates (with 10 ul volumes), using a BioTek Cytatation 5 reader, with the green fluorescent protein (GFP) cube filter set (ex: 485/20, em: 528/20, gain: 50, height: 7.5). Fluorescence polarization data was evaluated on Origin 2018. The dissociation constants (Kd) were determined by using the appropriate quadratic and cubic equations inserted as a user-defined function and applying nonlinear fit until convergence. The fitting formulae are shown at Supplementary note 1. Kd ratio distributions for Fig. 6 were calculated using a Monte-Carlo approach (Supplementary note 2).
Supplementary note 1. Curve fitting of fluorescence polarization (FP) measurements.
To evaluate polarization values from direct and competitive titrations, we used the following fitting formulae in Origin 2018, as detailed below.
Direct titration curves were fitted according to the following formula: […]
Where Imin is the minimal anisotropy, Imax is the (asymptotically estimated) maximal intensity. K0 is the starting concentration of the protein, while T0 is the (fixed) concentration of the labelled peptide and Kd is the dissociation constant.
Competitive titration curves were fitted with a different formula (In addition to those defined above, constants KdT KdB B0 T0 and D0 here refer to the Kd derived from the direct titration, the unknown Kd of the analyte, the labelled peptide concentration, the competitor peptide concentration as well as the protein concentration, respectively).
The ± sign refers to two different scenarios, depending on the sign of discriminant (KdT > KdB or […]). For unknown analytes, the choice of sign is not arbitrary, as the fitting will not converge unless the appropriate formula is chosen: […]
Where A, B and C correspond to the following expressions: […]

Going from `CSCC[C@H](NC(=O)[C@H](Cc1ccc(OP(=O)(O)O)cc1)NC(=O)[C@H](CC(=O)O)NC(=O)[C@H](CO)NC(=O)[C@H](Cc1c[nH]cn1)NC(=O)[C@H](CC(C)C)NC(=O)[C@H](CC(C)C)NC(=O)[C@H](CCCNC(=N)N)NC(=O)[C@H](CO)NC(=O)[C@@H](N)CCCNC(=N)N)C(=O)N[C@@H](CC(N)=O)C(=O)N[C@@H](CCSC)C(=O)N[C@H](C(=O)N1CCC[C@H]1C(=O)N[C@@H](CCCNC(=N)N)C(=O)N[C@@H](CCCNC(=N)N)C(=O)O)[C@@H](C)O` [p0CD28] to `CSCC[C@H](NC(=O)[C@H](Cc1ccc(OP(=O)(O)O)cc1)NC(=O)[C@H](CC(=O)O)NC(=O)[C@H](CO)NC(=O)[C@H](Cc1c[nH]cn1)NC(=O)[C@H](CC(C)C)NC(=O)[C@H](CC(C)C)NC(=O)[C@H](CCCNC(=N)N)NC(=O)[C@H](CO)NC(=O)[C@@H](N)CCCNC(=N)N)C(=O)N[C@@H](CC(N)=O)C(=O)N[C@@H](CCSC)C(=O)N[C@H](C(=O)N1CCC[C@H]1C(=O)N[C@@H](CCCNC(=N)N)C(=O)N[C@@H](CCCNC(=N)N)C(=O)O)[C@@H](C)OP(=O)(O)O` [ppCD28], the Kd falls from 39.7 ± 1.81 µM to 5.66 ± 0.29 µM (7-fold).

Compared with `CSCC[C@H](NC(=O)[C@@H]1CCCN1C(=O)[C@H](CCSC)NC(=O)[C@H](Cc1ccc(OP(=O)(O)O)cc1)NC(=O)[C@H](CC(=O)O)NC(=O)CNC(=O)[C@H](CO)NC(=O)CNC(=O)[C@H](CCCCN)NC(=O)[C@H](CCCNC(=N)N)NC(=O)CN)C(=O)N[C@@H](CO)C(=O)N1CCC[C@H]1C(=O)N[C@@H](CCCCN)C(=O)N[C@@H](CO)C(=O)O` [p0IRS1], `CSCC[C@H](NC(=O)[C@@H]1CCCN1C(=O)[C@H](CCSC)NC(=O)[C@H](Cc1ccc(OP(=O)(O)O)cc1)NC(=O)[C@H](CC(=O)O)NC(=O)CNC(=O)[C@H](CO)NC(=O)CNC(=O)[C@H](CCCCN)NC(=O)[C@H](CCCNC(=N)N)NC(=O)CN)C(=O)N[C@@H](COP(=O)(O)O)C(=O)N1CCC[C@H]1C(=O)N[C@@H](CCCCN)C(=O)N[C@@H](CO)C(=O)O` [ppIRS1] is […]-fold lower in Kd: 255 ± 34.9 µM for the first, 5.25 ± 0.3 µM for the second.

Going from `CC[C@H](C)[C@H](NC(=O)[C@H](CC(N)=O)NC(=O)[C@@H](NC(=O)[C@H](Cc1ccc(OP(=O)(O)O)cc1)NC(=O)[C@H](CCC(=O)O)NC(=O)CNC(=O)[C@@H]1CCCN1C(=O)[C@H](CO)NC(=O)[C@H](CCCCN)NC(=O)[C@@H]1CCCN1C(=O)[C@@H](N)CCC(=O)O)C(C)C)C(=O)N[C@@H](CCC(=O)O)C(=O)N[C@@H](Cc1ccccc1)C(=O)O` [p0SRev-IRS1] to `CC[C@H](C)[C@H](NC(=O)[C@H](CC(N)=O)NC(=O)[C@@H](NC(=O)[C@H](Cc1ccc(OP(=O)(O)O)cc1)NC(=O)[C@H](CCC(=O)O)NC(=O)CNC(=O)[C@@H]1CCCN1C(=O)[C@H](COP(=O)(O)O)NC(=O)[C@H](CCCCN)NC(=O)[C@@H]1CCCN1C(=O)[C@@H](N)CCC(=O)O)C(C)C)C(=O)N[C@@H](CCC(=O)O)C(=O)N[C@@H](Cc1ccccc1)C(=O)O` [ppSRev-IRS1], the Kd falls from 8.4 ± 0.75 µM to 0.72 ± 0.06 µM (12-fold). The second binds more tightly here.
